# According to EP0774461A1, “Excitatory amino acid derivatives” (ELI LILLY AND COMPANY, priority 1995, dated 1997):
# Test system: metabotropic glutamate receptors
# Assay: displacement of 1S,3R-ACPD-sensitive [3H]glutamate binding to rat brain cell membranes
# Settings: selective displacement of 1S,3R-ACPD-sensitive [3H]glutamate binding; crude membranes of rat forebrain
# Protocol: The binding of [^3H]glutamate was conducted with crude membranes of rat forebrain as described by Schoepp and True. Schoepp and True, Neuroscience Lett., 145, 100-104 (1992) and Wright et al., J. Neurochemistry 63: 938-945 (1994).
structure (smiles),measurement,value
"N[C@]1(C(=O)O)CO[C@@H]2[C@@H](C(=O)O)[C@@H]21 (racemic) [Example 1, 1SR,4SR,5RS,6SR-4-Amino-2-Oxabicyclo[3.1.0]hexane-4,6-dicarboxylic Acid]",IC50,55 nM
